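Five concentrations, 48 hours, 96-well plates. GI50 marks 50% less growth.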 Calls of active or inactive are those of the source. Cut-off read from the data, not from the text of the source: active = GI50 up to about 1.1 µM and inactive = higher.
Assays:
Test in all cases: NCI anticancer screen, dose series, 48 h
ACHN = system: ACHN
DU-145 = system: DU-145
HL-60 = system: HL-60
Hs-578T = system: Hs-578T
MDA-MB-231 = system: MDA-MB-231
MDA-MB-435 = system: MDA-MB-435
NCI-H460 = system: NCI-H460
OVCAR-8 = system: OVCAR-8
PC-3 = system: PC-3
RXF 393 = system: RXF 393
SK-MEL-28 = system: SK-MEL-28
SK-MEL-5 = system: SK-MEL-5
SK-OV-3 = system: SK-OV-3
SW-620 = system: SW-620
T47D = system: T47D
U-251 = system: U-251
UO-31 = system: UO-31
A549 = system: A549
MCF7 = system: MCF7
SNB-75 = system: SNB-75

Measured: GI50

O=c1[nH]c(-n2[nH]c3c(c2=O)CCCC3)nc(O)c1-c1ccccc1
inactive: ACHN > 100 µM | DU-145 > 100 µM | HL-60 > 100 µM | Hs-578T > 100 µM | MDA-MB-231 > 100 µM | MDA-MB-435 > 100 µM | NCI-H460 > 100 µM | OVCAR-8 > 100 µM | PC-3 > 100 µM | RXF 393 > 100 µM | SK-MEL-28 > 100 µM | SK-MEL-5 > 100 µM | SK-OV-3 > 100 µM | SW-620 > 100 µM | T47D > 100 µM | U-251 > 100 µM | UO-31 > 100 µM

Cc1cccc(/C=N/NC(=S)NCc2ccccn2)n1
inactive: A549 27.1 µM | ACHN 10.4 µM | DU-145 15.1 µM | HL-60 23.4 µM | Hs-578T > 93.5 µM | MCF7 31.8 µM | MDA-MB-231 33.5 µM | MDA-MB-435 36.9 µM | NCI-H460 15.9 µM | OVCAR-8 32.1 µM | PC-3 18.5 µM | SK-MEL-28 45.8 µM | SK-MEL-5 17.7 µM | SK-OV-3 28.3 µM | SNB-75 17.6 µM | SW-620 22.1 µM | T47D 31 µM | U-251 20.7 µM | UO-31 14.8 µM

O=C(CCc1cccc(O)c1)NCCc1cccc(O)c1
inactive: A549 > 100 µM | ACHN > 100 µM | DU-145 > 100 µM | HL-60 > 100 µM | Hs-578T > 100 µM | MCF7 > 100 µM | MDA-MB-231 > 100 µM | MDA-MB-435 > 100 µM | NCI-H460 > 100 µM | OVCAR-8 > 100 µM | PC-3 > 100 µM | RXF 393 > 100 µM | SK-MEL-28 > 100 µM | SK-MEL-5 > 100 µM | SK-OV-3 > 100 µM | T47D > 100 µM | U-251 > 100 µM | UO-31 > 100 µM

CCCn1c(SC)nc(COC(=O)NC)c1COC(=O)NC
inactive: A549 > 100 µM | ACHN > 100 µM | DU-145 > 100 µM | HL-60 > 100 µM | Hs-578T > 100 µM | MCF7 > 100 µM | MDA-MB-231 > 100 µM | MDA-MB-435 > 100 µM | NCI-H460 > 100 µM | OVCAR-8 > 100 µM | PC-3 > 100 µM | SK-MEL-28 > 100 µM | SK-MEL-5 > 100 µM | SK-OV-3 > 100 µM | SNB-75 > 100 µM | SW-620 > 100 µM | T47D > 100 µM | UO-31 > 100 µM

CSC1=C(C#N)C(=O)N(c2ccc(Cl)cc2)C(=O)C1C#N (stereo unspecified)
inactive: A549 > 100 µM | ACHN > 100 µM | DU-145 > 100 µM | HL-60 > 100 µM | Hs-578T 77.8 µM | MCF7 > 100 µM | MDA-MB-231 > 100 µM | MDA-MB-435 > 100 µM | NCI-H460 > 100 µM | PC-3 > 100 µM | RXF 393 > 100 µM | SK-MEL-28 > 100 µM | SK-MEL-5 > 100 µM | SK-OV-3 > 100 µM | SW-620 > 100 µM | T47D 74.8 µM | U-251 > 100 µM | UO-31 > 100 µM

CCOC(=O)/C(C#N)=C/c1coc2cc(C)cc(C)c2c1=O
inactive: A549 > 100 µM | ACHN > 100 µM | DU-145 > 100 µM | HL-60 > 100 µM | Hs-578T > 100 µM | MDA-MB-231 > 100 µM | MDA-MB-435 > 100 µM | NCI-H460 > 100 µM | OVCAR-8 > 100 µM | PC-3 > 100 µM | RXF 393 > 100 µM | SK-MEL-28 > 100 µM | SK-MEL-5 > 100 µM | SK-OV-3 > 100 µM | SNB-75 > 100 µM | SW-620 > 100 µM | T47D > 100 µM | U-251 > 100 µM | UO-31 59 µM

Cc1ccc2c(c1)C(=O)N1CCC[C@H]1C=N2
inactive: A549 30.7 µM | ACHN 15 µM | DU-145 7.78 µM | Hs-578T 15.3 µM | MCF7 11.9 µM | MDA-MB-231 19.2 µM | MDA-MB-435 16.7 µM | NCI-H460 20.4 µM | OVCAR-8 23.9 µM | PC-3 17.7 µM | RXF 393 4.21 µM | SK-MEL-28 22.7 µM | SK-MEL-5 11.1 µM | SK-OV-3 42 µM | SW-620 23.4 µM | T47D 18.4 µM | U-251 16.3 µM | UO-31 5.37 µM

COC(=O)NC1(NC(=O)OC)NC(=O)c2cc(OC)c(OC)cc2N1
inactive: A549 61.8 µM | ACHN 64 µM | DU-145 48.6 µM | Hs-578T 29.4 µM | MCF7 16.1 µM | MDA-MB-435 2.97 µM | NCI-H460 30.7 µM | OVCAR-8 65.6 µM | PC-3 26.1 µM | SK-MEL-28 29.3 µM | SK-MEL-5 32.3 µM | SW-620 42.6 µM | T47D 39.4 µM | UO-31 40 µM

CC1=NN(c2cccc(Cl)c2)C2(C1=Cc1ccc(O)cc1)C(Cl)C(=O)N2c1nc2ccccc2s1 (stereo unspecified)
inactive: ACHN 19.7 µM | DU-145 21.5 µM | HL-60 26.4 µM | Hs-578T 40.6 µM | MCF7 17.8 µM | MDA-MB-231 24.6 µM | MDA-MB-435 25.1 µM | NCI-H460 24.9 µM | OVCAR-8 27 µM | PC-3 19.4 µM | RXF 393 20.5 µM | SK-MEL-28 29 µM | SK-MEL-5 16.6 µM | SK-OV-3 22.8 µM | SW-620 15.4 µM | T47D 15.8 µM | U-251 20 µM | UO-31 12.9 µM

O=C(c1c(Cl)cc(Cl)cc1Cl)N(Cc1cccnc1)C(=S)N(Cc1cccnc1)C(=O)c1c(Cl)cc(Cl)cc1Cl
inactive: A549 32.1 µM | ACHN 19.1 µM | DU-145 4.62 µM | HL-60 7.23 µM | Hs-578T 23.9 µM | MCF7 4.52 µM | MDA-MB-231 20.4 µM | MDA-MB-435 8.67 µM | NCI-H460 13.4 µM | OVCAR-8 4.04 µM | PC-3 5.96 µM | SK-MEL-28 11 µM | SK-MEL-5 10.9 µM | SK-OV-3 22.2 µM | SNB-75 5.35 µM | SW-620 4.14 µM | T47D 14.4 µM | U-251 9.02 µM | UO-31 5.47 µM

Cc1cc(C)nc(NS(=O)(=O)c2ccc(Nc3c4ccccc4nc4c(C(=O)NNCCO)cccc34)cc2)n1
inactive: A549 > 100 µM | ACHN > 100 µM | DU-145 > 100 µM | HL-60 42 µM | Hs-578T > 100 µM | MCF7 89.1 µM | MDA-MB-231 > 100 µM | MDA-MB-435 79.3 µM | NCI-H460 15.7 µM | OVCAR-8 > 100 µM | PC-3 > 100 µM | SK-MEL-28 > 100 µM | SK-MEL-5 > 100 µM | SK-OV-3 > 100 µM | SW-620 > 100 µM | T47D 5.06 µM | U-251 > 100 µM | UO-31 > 100 µM
